Measured values as given in patent US20130158014A1, “METHOD FOR TREATING DISEASES ASSOCIATED WITH ALTERATIONS IN CELLULAR INTEGRITY USING RHO KINASE INHIBITOR COMPOUNDS” (priority 2008, published 2013).
Where two headings read alike, the source gives them in different places.

Assays:
[1] = Compound plasma concentrations in unsensitized mice at 15 min post administration; type: in vivo, mouse; conditions: for Mouse Oral PK: mean plasma concentration in mice, 15 minutes post oral administration; for Plasma Mean Concentration: mice, 15 min post administration, mean n = 3 mice
Method: Test compounds were formulated in water or 1% polysorbate 80 and dosed at 15 μmmol/kg for intraperitoneal (IP) or oral (PO) administration or formulated for intratracheal (IT) administration and dosed at 5 μmmol/kg, which directly targets the lungs. Following completion of the in vivo study, mice were euthanized and blood and plasma collected approximately 2.5-3 hours post administration of test compound for bronchodialator (BD) studies and 24 hours post administration for anti-inflamatory (AI) studies. […] Both plasma samples and lung extracts were assayed for compound concentrations using an on-line, solid phase extraction LC/MS/MS system.

[2] = biological target: T1, p70S6K (Homo sapiens, UniProt P23443, T412E); assay: p70S6K inhibition assay (IMAP); type: biochemical; conditions: average
T1 construct: purchased Upstate Chemicon 14-486
Method: (§1) Inhibition of Akt3 and p70S6K activity was determined using the IMAP™ FP Progressive Binding Kit (Molecular Devices product number R8127). […] Following the pre-incubation, 30 μM ATP was added to initiate the reaction. After 60 minutes at RT, Molecular Devices IMAP™ binding solution was added to bind phosphorylated substrate. After 30 minutes of incubation in the presence of the IMAP™ beads the fluorescence polarization was read and the ratio was reported as mP. IC50 results were calculated using the Prism software from Graphpad. The Ki values were determined according to the following formula: Ki=IC50/(1+([ATP Challenge]/EC50 ATP)).

[3] = Rat oral pharmacokinetics (plasma); type: in vivo; conditions: rat oral PK, mean n = 3 rats, 20-30 μmmol/kg
Method: Plasma (EDTA K2 anticoagulant) was collected from male, cannulated, CD Sprague Dawley rats to determine the pharmacokinetics of formulations containing compound inhibitors of Rho kinase. Each animal was dosed orally with a 4 ml/kg solution or suspension of each test compound in 10 mM acetate buffered saline, pH 4.5 at a final concentration range of 20-30 μmmol/kg. Blood was collected at 0.25, 0.5, 1, 2, 4, 6, 8, and 24 hours. Plasma samples were assayed for the concentration of the test compound using an on-line, solid phase extraction LC/MS/MS analysis system.
Samples were analyzed on a QSTAR Elite, hybrid quadrupole time-of-flight mass spectrometer (Applied Biosystems, Framingham, Mass.) coupled with a Symbiosis Pharma integrated, on-line SPE-HPLC system (Spark Holland Inc., Plainsboro, N.J.). Analyst QS 2.0 software was used for instrument control, data acquisition and processing. […] Mobile Phase A consisted of 0.1% ammonium hydroxide in water and Mobile Phase B consisted of 0.1% formic acid in acetonitrile. Pharmacokinetic analyses were performed using WinNonlin software version 5.2 (Pharsight Corporation, Mountain View, Calif.).
As determined from the plasma concentration versus time curves, the time to peak and peak exposure are represented by the values Tmax and Cmax, respectively. The AUC values (nM*hr) shown were calculated as the areas under the plasma concentration versus time curves from time zero through the time of the last observable value and represent the total exposure of the compound over the course of the study. Half-life values or the amount of time required for the plasma levels of the compound to decline to half the initial value are represented as t1/2.

[4] = test system: ova-sensitized, ova-challenged mice; assay: Prevention of airway hyperreactivity (Penh, methacholine) in mouse ovalbumin model; type: in vivo; conditions: days 27 to 31; for airway hyperreactivity: intratracheal once a day
Method: The anti-inflammatory dosing paradigm consists of dosing the animals once a day starting on day 27 and finishing on either day 30 or 31 (1 hr prior to the aerosolized ovalbumin challenges on days 28 to 30) but not on day 32 when hyperreactivity evaluation occurs. […] Exposure to the methacholine doses consisted of a 3 minute period during which a nebulizer was aerosolizing the methacholine and an additional 3 minute period following the cessation of nebulization. […] Enhanced pause (Penh), a unitless index of airway hyperreactivity, is derived from the expiratory side of the respiratory waveform measured via the plethysmograph and is used as an indirect measure of airway resistance and hyperreactivity. […] Following the methacholine dose response, BALF was collected and all animals were anesthetized, bled and euthanized. […] The Penh value at each of the dose levels of methacholine represents the 6-minute average response. Change from baseline (CFB) in Penh was calculated at each methacholine dose and the area under the curve (AUC) for these CFB values was calculated using the trapezoidal rule. This same approach was applied for each mouse across multiple experiments. […] Data from equal experimental conditions across experiments performed on different days were pooled for statistical analysis and data reporting. […] A random intercept for each experiment was assumed to account for possible similarities of the results obtained from a given experiment (i.e., as a “blocking effect”). […] For FIG. 9, linear AUC values from compound treated mice were reported as a percent of linear AUC values from vehicle-treated ovalbumin-sensitized/ovalbumin-challenged (asthmatic) mice.

[5] = test system: ova-sensitized, ova-challenged mice; assay: Mouse ovalbumin sensitization model: eosinophils in BALF; type: in vivo; conditions: dosed orally once a day, day 27 to day 31; FIG. 4
Method: Male BALB/c mice were ordered from Charles River Laboratories (Raleigh, N.C.). The animals were approximately 19 to 21 grams at time of receipt. Upon arrival, the animals were randomized into groups of five males per cage and assigned to a dosing group. Animals were quarantined for 7 days under test conditions. They were observed daily for general health status and ability to adapt to the water bottles. Animals were sensitized on day 0 and 14 of study by an intraperitoneal injection with 20 μg of ovalbumin (ova) and 2.0 mg aluminum hydroxide (alum) which initiates the development of a specific T-helper (Th) cells type 2 resulting in asthmatic animals (denoted as Ova in the figures). One group of animals received an injection of saline to use as control animals (denoted as normal in the figures). All animals were challenged with aerosolized 1% ova once daily for 25 minutes on days 28, 29, and 30 (Zosky, et al. Respiratory Research. 2004; 5:15). Aerosol challenge consists of using an Aerogen Aeroneb nebulizer and controller with a particle size of 4-6 μm mass median aerodynamic diameter (MMAD) with a distribution of 400 μl per minute. This aerosol challenge is necessary to target the Th2-driven allergic inflammation in the lower airways. […]
Bronchoalveolar lavage fluid (BALF) was collected by infusing 3.0 ml of saline with 10% fetal calf serum into the lungs via the trachea and then withdrawing the fluid. The total amount of cells/ml of BALF fluid was determined via manual cell count on hemocytometer. The BALF was centrifuged, supernatant removed and analyzed for cytokine concentrations as described below, and cell pellet reconstituted in 500 μL of fluid. […] Following Hema3 stain, relative percentages of individual leukocytes were determined on a 200 cell count for each sample. The final concentration of individual leukocyte cell types per ml of BALF was determined by multiplication of the relative percentage of individual leukocytes with the total amount of cells/ml of BALF fluid.

[6] = biological target: T2, ERK2 (Homo sapiens, UniProt P28482); assay: Kinase panel screen (KinaseProfiler): ERK2; type: biochemical; conditions: 10 μM ATP, read-out: Percent inhibition ERK2; for activity at 1 µM: 1 μM test compound; for activity at 10 µM: 10 μM test compound
T2 construct: purchased Upstate, Millipore Bioscience Division (KinaseProfiler service)
Method: Compounds of Formulae I and II were examined for activity against a selected panel of kinases using the KinaseProfiler™ enzyme profiling services (Upstate, Millipore Bioscience Division). Percent kinase activity at 10 μM and 1 μM test compound and 10 μM ATP was determined against 40 wild-type recombinant human kinases according to Upstate's standard protocol: ASK1, BTK, CSK, c-RAF, GCK, GSK3β, IKKα, IKKβ, IRAK1, IRAK4, JNK1α1, JNK2α2, JNK3, ERK1, ERK2, MAPKAP-K2, MAPKAP-K3, MEK1, MKK4, MKK6, MKK7β, Mnk2, MSK1, PAK3, PDK1, PRAK, ROCK1, Rsk2, SAPK2a, SAPK2b, SAPK3, SAPK4, SRPK1, SRPK2, Syk, TAK1, TBK1, PI3-Kβ, PI3-Kγ, PI3-Kδ.

[7] = biological target: T3, Akt3 (Homo sapiens, UniProt Q9Y243); assay: Akt3 inhibition assay (IMAP); type: biochemical; conditions: IMAP FP assay, 30 μM ATP; average
T3 construct: purchased Upstate Chemicon 14-502
Method: as §1

[8] = test system: TNF-α secretion from LPS-stimulated human monocytes; assay: Human monocyte cytokine secretion assay (LPS): TNF-α; type: cell-based; conditions: average percent of stimulated secretion from human monocytes, 10 μM test compound
Method: (§2) Peripheral blood from healthy human volunteers was collected and the monocytes isolated via Ficoll-paque density centrifugation. […] The cells were allowed to pre-incubate with test compound at the indicated concentration for 30 minutes (37° C., 5% CO2, humidified air); after which the supernatant was removed and media containing compound and 1 ng/mL LPS was added. Cells were allowed to incubate with compounds and LPS for 4 hours at 37° C. after which the supernatant was removed and stored at −80° C. Cytokine concentrations in the supernatant were determined using commercially available Bio-Rad Bio-plex™ kits according the manufacturer's instructions.

[9] = test system: IL-1β secretion from LPS-stimulated human monocytes; assay: Human monocyte cytokine secretion assay (LPS): IL-1β; type: cell-based; conditions: average percent of stimulated secretion from human monocytes, 10 μM test compound
Method: as §2

[10] = test system: A-10 rat thoracic aorta cells; assay: PDGF-stimulated smooth muscle cell proliferation assay (BrdU); type: cell-based; conditions: for Proliferation at 10 μM: 10 μM test compound
Method: Effects on cell proliferation were measured using a bromodeoxyuridine (BrdU) incorporation assay. […] Serum free media containing 0.1% BSA was added to the cells. 24 hours later the media was removed and replaced with warmed serum free media. […] Proliferation was then monitored using the BrdU Cell Proiferation Assay, HTS (Calbiochem cat. #HTS01). BrdU was allowed to incorporate into cells for 24 hours prior to the addition of fixative/denaturing solution and the fluorometric detection of incorporated BrdU using a BrdU antibody as per manufacturer's directions. Data are reported as a percent of the PDGF-stimulated BrdU incorporation.

[11] = test system: IL-6 secretion from LPS-stimulated human monocytes; assay: Human monocyte cytokine secretion assay (LPS): IL-6; type: cell-based; conditions: average percent of stimulated secretion from human monocytes, 10 μM test compound
Method: as §2

[12] = biological target: T4, ROCK2 (Homo sapiens, UniProt O75116); assay: Rho kinase inhibition assay (IMAP), ROCK2; type: biochemical; conditions: average
T4 construct: purchased Upstate/Chemicon 14-451
Method: Following the pre-incubation, 10 μM ATP was added to initiate the reaction. After 60 minutes at room temperature, Molecular Devices IMAP™ binding solution was added to bind phosphorylated substrate. After 30 minutes of incubation in the presence of the IMAP™ beads, the fluorescence polarization was read and the ratio was reported as mP. IC50 values for compounds and EC50 values for ATP were calculated using the Prism software from Graphpad.

[13] = test system: LPS-challenged mice; assay: LPS-induced cytokine production assay (IL-1β in BALF); type: in vivo, mouse; conditions: intratracheal, one hour prior to LPS challenge; BALF four hours after; FIG. 13
Method: Male BALB/c mice, approximately 19 to 21 grams, were ordered from Charles River Laboratories (Raleigh, N.C.). All animals were challenged with aerosolized LPS (10 μg/ml) for 25 minutes on study day 0. LPS aerosol was generated using an Aerogen Aeroneb nebulizer and controller providing a flow of 400 μl/min and a particle size of 2-4 μm MMAD. Rolipram was administered i.p at 20 mg/kg. […] Total cell counts were determined using the Coulter Counter. For differential evaluations, BALF was centrifuged and cytospin slides prepared and stained […]. Manual leukocyte counts were then completed on 200 cells. The final concentration of individual leukocyte cell types per ml of BALF was determined by multiplication of the relative percentage of individual leukocytes with the total amount of cells/ml of BALF fluid. The concentration of IL-1β in the BALF samples was determined using commercially available Bio-plex kits (Bio-Rad).

[14] = IMAP FP assay, 30 μM ATP, read-out: p70S6K Ki, Avg
[15] = average percent of PDGF stimulated proliferation
[16] = IMAP assay, 10 μM ATP, read-out: ROCK2 Ki, Avg

T2 sequence (P28482 whole entry): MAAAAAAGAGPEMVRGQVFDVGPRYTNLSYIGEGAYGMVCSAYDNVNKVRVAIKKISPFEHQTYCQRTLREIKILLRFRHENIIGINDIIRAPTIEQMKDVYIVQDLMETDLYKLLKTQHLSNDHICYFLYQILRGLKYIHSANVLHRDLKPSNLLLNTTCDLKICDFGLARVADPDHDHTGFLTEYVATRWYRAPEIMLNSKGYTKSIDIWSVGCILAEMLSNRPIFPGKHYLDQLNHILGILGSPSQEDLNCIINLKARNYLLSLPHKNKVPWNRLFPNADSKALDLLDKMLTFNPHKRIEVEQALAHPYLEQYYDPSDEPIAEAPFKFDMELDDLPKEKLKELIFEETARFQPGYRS
T1 sequence (P23443 1-421 T412E limits assumed): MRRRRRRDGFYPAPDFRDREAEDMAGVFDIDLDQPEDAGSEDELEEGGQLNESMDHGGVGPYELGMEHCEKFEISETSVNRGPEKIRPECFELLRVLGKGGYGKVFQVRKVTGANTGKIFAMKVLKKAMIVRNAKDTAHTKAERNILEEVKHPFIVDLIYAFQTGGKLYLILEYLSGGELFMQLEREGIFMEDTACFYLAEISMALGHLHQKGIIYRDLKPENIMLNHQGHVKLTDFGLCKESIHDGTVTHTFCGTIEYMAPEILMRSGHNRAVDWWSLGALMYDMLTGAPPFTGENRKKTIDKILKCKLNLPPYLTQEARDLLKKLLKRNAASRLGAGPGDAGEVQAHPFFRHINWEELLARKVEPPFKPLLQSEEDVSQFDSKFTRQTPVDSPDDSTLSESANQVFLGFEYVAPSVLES
T4 sequence (O75116 11-552 limits assumed): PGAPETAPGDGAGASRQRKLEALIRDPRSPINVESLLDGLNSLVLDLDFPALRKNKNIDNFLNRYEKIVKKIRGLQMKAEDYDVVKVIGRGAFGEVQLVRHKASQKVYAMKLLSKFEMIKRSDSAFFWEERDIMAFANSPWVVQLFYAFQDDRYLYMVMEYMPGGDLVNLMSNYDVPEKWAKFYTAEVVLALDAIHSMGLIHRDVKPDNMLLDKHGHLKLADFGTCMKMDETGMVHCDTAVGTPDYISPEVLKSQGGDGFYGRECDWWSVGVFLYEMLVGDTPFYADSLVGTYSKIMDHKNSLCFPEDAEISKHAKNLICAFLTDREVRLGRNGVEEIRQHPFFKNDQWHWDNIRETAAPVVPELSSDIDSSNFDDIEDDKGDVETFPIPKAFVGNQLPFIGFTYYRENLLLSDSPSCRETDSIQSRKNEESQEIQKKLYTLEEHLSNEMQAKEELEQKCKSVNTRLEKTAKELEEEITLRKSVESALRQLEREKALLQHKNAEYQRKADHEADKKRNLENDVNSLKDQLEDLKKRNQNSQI
T3 sequence (Q9Y243 whole entry): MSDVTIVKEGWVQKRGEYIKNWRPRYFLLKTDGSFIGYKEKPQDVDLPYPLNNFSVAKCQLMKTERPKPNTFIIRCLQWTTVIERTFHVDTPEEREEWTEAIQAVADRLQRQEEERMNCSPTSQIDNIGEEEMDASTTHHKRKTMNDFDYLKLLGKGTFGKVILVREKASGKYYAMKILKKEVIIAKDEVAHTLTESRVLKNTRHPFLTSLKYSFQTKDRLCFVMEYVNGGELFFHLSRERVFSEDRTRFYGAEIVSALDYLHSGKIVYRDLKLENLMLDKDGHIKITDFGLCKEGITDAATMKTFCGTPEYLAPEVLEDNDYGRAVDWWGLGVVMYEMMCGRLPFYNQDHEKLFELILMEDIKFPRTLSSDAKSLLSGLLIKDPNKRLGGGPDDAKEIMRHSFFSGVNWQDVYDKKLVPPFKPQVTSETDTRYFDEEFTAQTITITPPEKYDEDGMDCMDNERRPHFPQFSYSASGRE

## COc1ccc(CN2CCC[C@H](Nc3ccc4[nH]ncc4c3)C2)cc1 [Compound 1.079]
[1]
  Mouse Oral PK: 2443 nM
  Plasma Mean Concentration: 2442.5 nM
[2]; [14]
  Ki: 3.01 µM
[2]; read-out: p70S6K Ki
  Ki: 3.01 µM

## OCCOc1cccc(CN2CCC[C@@H](Nc3ccc4[nH]ncc4c3)C2)c1 [Compound 1.092]
[3]
  Vz_F: 19.0 L/kg

## c1cc2cc(CN3CCC[C@@H](Nc4ccc5[nH]ncc5c4)C3)ccc2o1 [Compound 1.131]
[4]; oral 15 μMol/kg once a day
  airway hyperreactivity to methacholine on Day 32: prevention of airway hyperreactivity
[5]
  eosinophils per ml of BALF: reduced

## CCc1ccc(CN2CCC[C@@H](Nc3ccc4[nH]ncc4c3)C2)cc1 [Compound 1.136]
[3]
  AUC (0-last): BLQ
  Cmax: BLQ
  Tmax: BLQ
  Vz_F: BLQ
  t½: BLQ

## Cc1ccc(CN2CCC[C@@H](Nc3ccc4[nH]ncc4c3)C2)cc1OCCO [Compound 1.161]
[6]
  activity at 1 µM: 104%
  activity at 10 µM: 92%
[4]
  airway hyperreactivity: prevention of airway hyperreactivity

## NC(=O)COc1cccc(CN2CCC[C@H](Nc3ccc4[nH]ncc4c3)C2)c1 [Compound 1.195]
[1]
  Mouse Oral PK: 108 nM
  Plasma Mean Concentration: 107.9 nM
[2]; [14]
  Ki: 2.73 µM
[2]; read-out: p70S6K Ki
  Ki: 2.73 µM

## Cc1ccc(CN2CCC[C@H](Nc3ccc4[nH]ncc4c3)C2)cc1NS(=O)(=O)N(C)C [Compound 1.237]
[7]
  Ki: 7.91 µM
[8]
  TNF-α: 70.6%
[9]
  IL-1β: 97.1%
[10]; 1 μM, 10 ng/mL PDGF
  Percent of PDGF Induced Proliferation at 1 μM Avg: 63.5%
[10]; 10 μM, 10 ng/mL PDGF
  Percent of PDGF Induced Proliferation at 10 μM Avg: 51.4%
[10]; average percent of PDGF stimulated proliferation, 1 μM test compound
  Proliferation at 1 μM: 63.5%
[10]; [15]
  Proliferation at 10 μM: 51.4%
[11]
  IL-6: 100.9%
[12]; [16]
  Ki: 0.004 µM
[12]; read-out: ROCK2 Ki
  Ki: 0.004 µM

## Cc1ccc(CN2CCC[C@@H](Nc3ccc4[nH]ncc4c3)C2)cc1NS(=O)(=O)N(C)C [Compound 1.262]
[7]
  Ki: 0.861 µM
[8]
  TNF-α: 135.3%
[9]
  IL-1β: 145.7%
[11]
  IL-6: 156.6%
[12]; [16]
  Ki: 0.004 µM
[12]; read-out: ROCK2 Ki
  Ki: 0.004 µM

## CSc1ccc(CN2CC[C@@H](Nc3cccc4cnccc34)C2)cc1 [Compound 2.026]
[10]; [15]
  Proliferation at 10 μM: 52.0%
[3]
  AUC (0-last): BLQ
  Cmax: BLQ
  Tmax: BLQ
  Vz_F: BLQ
  t½: BLQ

## NC(=O)Cn1ccc2cc(CN3CC[C@@H](Nc4cccc5cnccc45)C3)ccc21 [Compound 2.059]
[6]
  activity at 1 µM: 56%
  activity at 10 µM: 12%
[13]
  IL-1β in BALF: reduction
[4]
  airway hyperreactivity: prevention of airway hyperreactivity

## OCCn1ccc2cc(CN3CC[C@@H](Nc4cccc5cnccc45)C3)ccc21 [Compound 2.066]
[6]
  activity at 10 µM: 12%
[4]
  airway hyperreactivity: prevention of airway hyperreactivity
